{"source": "patent US20180333371A1", "about": "“CURCUMIN AND RESVERATROL FOR CHRONIC INFLAMMATION” (DSM IP Assets B.V., priority 2015, published 2018)", "format_in_all_cases": "cell-based, Sprague Dawley rat", "key": {"[1]": {"tested_on": "PGE2 release from primary microglia", "experiment": "LPS-stimulated PGE2 release by primary microglia (ELISA)", "details": "for effect on PGE2 release: FIG. 2A", "description": "(§1) Microglial Harvesting and Culture. All experiments involving animals were approved by the Animal Care and Use Committee established at Bolder Biopath, Inc. (Boulder, Colo.). Primary microglial cultures were derived from neocortical tissue of E22 Sprague Dawley rat pups taken from timed-pregnant dams (Charles River) by Caesarean section. Briefly, the pup brain cortices were isolated in Hibernate EB (Brain Bits; Springfield, Ill.). The samples were then transferred to Hibernate E (without Ca; Brain Bits; Springfield, Ill.) and washed twice with fresh Hibernate E (−Ca). The tissue was next digested in Hibernate E (−Ca) containing 0.5% trypsin (Sigma) for 15 min at 37° C.). The overlying solution was removed, and the trypsin reaction was quenched by washing the settled tissue with Hibernated E (—Ca) containing 20% heat-inactivated fetal bovine serum (FBS; Hyclone).\nThe tissue was triturated into single cells, and the suspension was filtered through a 70-μm cell strainer. Cell numbers and viability were consistently greater than 95% as determined using trypan blue (0.4%; Fisher Scientific) and a Countess automated cell counter (Life Technologies, Grand Island, N.Y.). Cells were seeded into T-75 flasks (VWR) at 8×10^6 cells/flask in HiGlutaXL Dulbecco's Modified Eagle Medium (DMEM, 4.5 g/L glucose, plus glutamine; HyClone) containing 100 μg/mL penicillin, 100 μg/mL streptomycin, 0.5 ng/mL amphotericin (CellnTec) and 1 mM sodium pyruvate. The media was changed on day 3 in vitro, and the cells were fed every 4-5 days while in the flasks. At day 14 in vitro, mouse granulocyte macrophage colony stimulating factor (mGM-CSF; R&D Systems; Minneapolis, Minn.) was added at a final concentration of 5 ng/mL to stimulate microglial differentiation.\n(§2) Cell Stimulation and Cytokine Assays. […] The concentration of prostaglandin E2 (PGE2) in the supernatant was measured by ELISA (Cayman Chemical). The concentrations of tumor necrosis factor-α (TNF-α), interleukin-1β (IL-1β) and interleukin-6 (IL-6) in the supernatant were determined by multiplex ELISA (Quansys Biosciences; Logan, Utah). […]"}, "[2]": {"tested_on": "IL-1β release by primary microglia", "experiment": "LPS-stimulated IL-1β release by primary microglia (multiplex ELISA)", "details": "0-250 μM, FIG. 2C", "description": "as §1, with “The overlying solution was removed, and the trypsin reaction was quenched by washing the settled tissue with Hibernated E (—Ca) containing 20% heat-inactivated fetal bovine serum (FBS; Hyclone).” left out\n(§3) The tissue was triturated into single cells, and the suspension was filtered through a 70-μm cell strainer. Cell numbers and viability were consistently greater than 95% as determined using trypan blue (0.4%; Fisher Scientific) and a Countess automated cell counter (Life Technologies, Grand Island, N.Y.). […]\nas §2"}, "[3]": {"tested_on": "TNF-α release by primary microglia", "experiment": "LPS-stimulated TNF-α release by primary microglia (multiplex ELISA)", "details": "0-250 μM, FIG. 2B", "description": "as §1, with “The overlying solution was removed, and the trypsin reaction was quenched by washing the settled tissue with Hibernated E (—Ca) containing 20% heat-inactivated fetal bovine serum (FBS; Hyclone).” left out\nas §3, §2"}, "[4]": {"tested_on": "PGE2 release from primary microglia", "experiment": "Synergism analysis (median-effect principle, combination index, ComboSyn) of PGE2 release inhibition"}}, "data": [{"compound": "Oc1ccc(C=Cc2cc(O)cc(O)c2)cc1", "note": "[Resveratrol, resveratrol]", "values": [{"measurement": "effect on PGE2 release", "setting": "[1]; 75 μM", "value": "significantly inhibited"}, {"measurement": "effect on PGE2 release", "setting": "[1]; 250 μM", "value": "significantly inhibited"}, {"measurement": "IC50", "setting": "[1]; Rattus norvegicus, FIG. 3", "value": 2250, "unit": "nM"}, {"measurement": "significant effects on IL-1β release", "setting": "[2]", "value": "not detected"}, {"measurement": "significant effects on TNF-α release", "setting": "[3]", "value": "not detected"}, {"measurement": "Dose reduction index (DRI)", "setting": "[4]; in combination resveratrol 2.25 μM + curcumin C3 7 nM, FIG. 4", "value": 42.76}, {"measurement": "decrease in concentration that would still have a synergistic effect in combination", "setting": "[4]; relative to 2.25 μM resveratrol / 7 nM curcumin C3", "value": 43, "unit": "%"}]}]}
